Measured values from the supplement of paper PMC10307832.

Experiments:
Test in all cases: relative viability (nuclei count vs DMSO), 5 days (fraction); higher = more cells survive
[1] = tested on: LXF-289
How it was run: (§1)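 Nuclei were stained with Hoechst during a one-step fixation (final 0.05% Triton X-100, 1% formaldehyde, 1 ug/ml Hoechst) carried out 5 days after dosing, then counted on 4× images. The cells, lung cancer lines in 1536-well plates, had been dosed by pin tool the day after seeding with one drug alone or a fixed anchor-drug dose plus five library-drug doses (not always all listed) in √10 steps. Relative viability is the nuclei count in treated wells divided by that in vehicle wells, and each value is the median of duplicate plates.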

[2] = tested on: NCI-H1355
How it was run: as §1

[3] = tested on: NCI-H1563
How it was run: as §1

[4] = tested on: NCI-H1651
How it was run: as §1

[5] = tested on: NCI-H1755
How it was run: as §1

[6] = tested on: NCI-H1792
How it was run: as §1

[7] = tested on: NCI-H1915
How it was run: as §1

[8] = tested on: NCI-H2170
How it was run: as §1

[9] = tested on: NCI-H2347
How it was run: as §1

[10] = tested on: NCI-H3122
How it was run: as §1

[11] = tested on: NCI-H322M
How it was run: as §1

[12] = tested on: NCI-H460
How it was run: as §1

[13] = tested on: NCI-H520
How it was run: as §1

[14] = tested on: NCI-H596
How it was run: as §1

[15] = tested on: NCI-H650
How it was run: as §1

[16] = tested on: NCI-H661
How it was run: as §1

[17] = tested on: NCI-H727
How it was run: as §1

[18] = tested on: PC-14
How it was run: as §1

[19] = tested on: RERF-LC-KJ
How it was run: as §1

[20] = tested on: SK-MES-1
How it was run: as §1

## C[C@@H]1CN(CC(=O)Nc2ccc3c(c2)Cc2cccc(-c4cc(=O)cc(N5CCOCC5)o4)c2S3)C[C@H](C)O1 + CS(=O)(=O)CCNCc1ccc(-c2ccc3ncnc(Nc4ccc(OCc5cccc(F)c5)c(Cl)c4)c3c2)o1 [Lapatinib] (partner 2 µM)
[1]; first compound 0.04 µM
  relative viability: 0.879
[1]; first compound 0.1265 µM
  relative viability: 0.962
[1]; first compound 0.4 µM
  relative viability: 0.904
[1]; first compound 4 µM
  relative viability: 0.835
[2]; first compound 0.04 µM
  relative viability: 0.713
[2]; first compound 0.1265 µM
  relative viability: 0.992
[2]; first compound 0.4 µM
  relative viability: 0.816
[2]; first compound 4 µM
  relative viability: 0.97
[3]; first compound 0.04 µM
  relative viability: 0.834
[3]; first compound 0.1265 µM
  relative viability: 0.883
[3]; first compound 0.4 µM
  relative viability: 0.859
[3]; first compound 4 µM
  relative viability: 0.702
[4]; first compound 0.04 µM
  relative viability: 0.82
[4]; first compound 0.1265 µM
  relative viability: 0.889
[4]; first compound 0.4 µM
  relative viability: 0.78
[4]; first compound 4 µM
  relative viability: 0.795
[5]; first compound 0.04 µM
  relative viability: 1.1
[5]; first compound 0.1265 µM
  relative viability: 0.995
[5]; first compound 0.4 µM
  relative viability: 1
[5]; first compound 4 µM
  relative viability: 0.932
[6]; first compound 0.04 µM
  relative viability: 0.824
[6]; first compound 0.1265 µM
  relative viability: 0.832
[6]; first compound 0.4 µM
  relative viability: 0.856
[6]; first compound 4 µM
  relative viability: 0.849
[7]; first compound 0.04 µM
  relative viability: 0.872
[7]; first compound 0.1265 µM
  relative viability: 0.956
[7]; first compound 0.4 µM
  relative viability: 1.06
[7]; first compound 4 µM
  relative viability: 0.785
[8]; first compound 0.1265 µM
  relative viability: 0.251
[8]; first compound 0.4 µM
  relative viability: 0.277
[8]; first compound 4 µM
  relative viability: 0.277
[9]; first compound 0.04 µM
  relative viability: 0.79
[9]; first compound 0.1265 µM
  relative viability: 1.04
[9]; first compound 0.4 µM
  relative viability: 0.988
[9]; first compound 4 µM
  relative viability: 0.875
[10]; first compound 0.04 µM
  relative viability: 1.05
[10]; first compound 0.1265 µM
  relative viability: 1.01
[10]; first compound 0.4 µM
  relative viability: 1.07
[10]; first compound 4 µM
  relative viability: 0.988
[11]; first compound 0.04 µM
  relative viability: 0.39
[11]; first compound 0.1265 µM
  relative viability: 0.587
[11]; first compound 0.4 µM
  relative viability: 0.626
[11]; first compound 4 µM
  relative viability: 0.535
[12]; first compound 0.04 µM
  relative viability: 0.941
[12]; first compound 0.1265 µM
  relative viability: 1.02
[12]; first compound 0.4 µM
  relative viability: 1.04
[12]; first compound 4 µM
  relative viability: 0.799
[13]; first compound 0.04 µM
  relative viability: 0.983
[13]; first compound 0.1265 µM
  relative viability: 0.701
[13]; first compound 0.4 µM
  relative viability: 0.682
[13]; first compound 4 µM
  relative viability: 0.711
[14]; first compound 0.04 µM
  relative viability: 1.07
[14]; first compound 0.1265 µM
  relative viability: 1.24
[14]; first compound 0.4 µM
  relative viability: 1.06
[14]; first compound 4 µM
  relative viability: 1.03
[15]; first compound 0.04 µM
  relative viability: 0.583
[15]; first compound 0.1265 µM
  relative viability: 0.852
[15]; first compound 0.4 µM
  relative viability: 0.857
[15]; first compound 4 µM
  relative viability: 0.697
[16]; first compound 0.1265 µM
  relative viability: 0.488
[16]; first compound 0.4 µM
  relative viability: 0.479
[16]; first compound 4 µM
  relative viability: 0.411
[17]; first compound 0.04 µM
  relative viability: 0.9
[17]; first compound 0.1265 µM
  relative viability: 0.801
[17]; first compound 0.4 µM
  relative viability: 0.78
[17]; first compound 4 µM
  relative viability: 0.752
[18]; first compound 0.04 µM
  relative viability: 0.277
[18]; first compound 0.1265 µM
  relative viability: 0.298
[18]; first compound 0.4 µM
  relative viability: 0.298
[18]; first compound 4 µM
  relative viability: 0.316
[19]; first compound 0.04 µM
  relative viability: 0.873
[19]; first compound 0.1265 µM
  relative viability: 0.877
[19]; first compound 0.4 µM
  relative viability: 0.808
[19]; first compound 4 µM
  relative viability: 0.799
[20]; first compound 0.04 µM
  relative viability: 0.463
[20]; first compound 0.1265 µM
  relative viability: 0.53
[20]; first compound 0.4 µM
  relative viability: 0.429
[20]; first compound 4 µM
  relative viability: 0.409
